Results: US7354918B2, “Derivatives of 14.15-dihydro 20.21-dinoreburnamenin-14-ol and applications thereof” (Biocortech, priority 2004, dated 2008)
One block for each molecule: values may come before it.

Experiments:
[1] = test system: tyrosine hydroxylase (TH) in the Locus Caeruleus (LC); assay: TH protein content in the locus caeruleus, direct transfer of brain sections on nitrocellulose, quantitative immunochemistry; assay type: in vivo, Balb/c mice; details: for Quantity of TH measured in the LC: single dose 20 mg/kg i.p., sacrificed three days after injection, average±sem on the entire structure, percent of the average value of the corresponding control group
Balb/c variety = assay: Tail Suspension Test (TST); assay type: in vivo, Balb/c mice; details: 6-minute period, vehicle 180
Procedure: The behavioural activity test, the Tail Suspension Test (TST) validated by antidepressants (Ref. 7) in the Balb/c variety, was also done for the molecule in the preferred example (Ie1b) at a dose of 1 mg/kg i.p. The experiment given as an example was carried out three days after a single injection and the effect was compared with the effect of imipramine (30 mg/kg i.p. 30 minutes before the test) (see Table 4 below).
The results are the average for n animals.

[2] = test system: cells containing TH in the LC; assay: Number of TH immunopositive cells in the LC by immunohistochemistry; assay type: in vivo, Balb/c mice
Procedure: The number of immunopositive cells for TH is determined starting from coronal brain sections fixed by immunohistochemistry using the same anatomic sampling.
The results in FIG. 2 show the posterior-anterior distribution of the number of cells containing TH in the LC determined by immunohistochemistry obtained in a control group of Balb/c mice and in a group of mice treated by the molecule with formula (Ie1). Each bar represents the average obtained in each 80 μm anatomic interval in each experimental group±sem. **** indicates p<0.0001 determined by an ANOVA II (treatment factor). […] In the entire structure, the average values found were equal to 996±1 and 1250±58 in the control group and in the treated group respectively. (Administered dose 20 mg/kg i.p. sequential treatment at D0, D3, D6, D9 and D12, animals sacrificed at D16).
This phenomenon may be stabilised by an appropriate sequential treatment (for example: one 20 mg/kg i.p. injection every 3 days for 15 days, see FIG. 2). Under these conditions, the increase in the number of positive supernumerary TH cells that appeared in the LC is still maintained for 24 days after the treatment stopped.

SK+Ca channels = assay: Receptorial profile in vitro on 74 receptors and channels; assay type: binding; details: concentration of 10 micromoles
[3] = test system: positive TH fibres of the prefrontal cortex; assay: Positive TH (noradrenergic) fibres in the prefrontal cortex by immunocytochemistry; assay type: in vivo, Balb/c mouse; details: 5 i.p. injections 20 mg/kg every three days, sacrificed three days after the last injection
Excerpt: The results in FIG. 3 show the distribution of positive TH fibres on a prefrontal cortex sample of the Balb/c mouse. At left: in a control mouse, the typical orientation (parallel to the surface of the cortex) of noradrenergic fibres identified using an immunocytochemical reaction related to the presence of TH protein, is noticed in the molecular layer of the prefrontal cortex. […] The animals were sacrificed three days after the last injection. The dashed lines mark the limit of the molecular layer of the prefrontal cortex.

[4] = test system: voltage dependent K channels; assay: Receptorial profile in vitro on 74 receptors and channels; assay type: binding; details: concentration of 10 micromoles
[5] = test system: voltage dependent Na channels; assay: as above; assay type: binding; details: concentration of 10 micromoles
[6] = test system: catecholamine transport systems; assay: as above; assay type: binding; details: concentration of 10 micromoles
[7] = test system: cells expressing hypocretins in the lateral hypothalamus; assay: Distribution of cells expressing hypocretins in the lateral hypothalamus by immunocytochemistry; assay type: in vivo, Balb/c mice; details: single dose 20 mg/kg i.p.
Procedure: This property is shared with its direct synthesis precursor, the compound with formula (1). Table 3 below illustrates this type of result the two chemical entities:
The distribution of cells expressing hypocretins in the lateral hypothalamus is studied here with posterior—anterior sampling in consecutive 80 μm thick intervals. The cells are identified by immunocytochemistry using specific antibodies. The two molecules studied were administered by i.p. method with a single dose of 20 mg/kg. The animals were sacrificed three days after injection. A population of about a hundred supernumerary cells is thus identified at the posterior third of the cerebral core.

[8] = Biodistribution study (brain, liver) after i.p. and oral administration; assay type: in vivo; details: for share of the cerebral concentration: 45 minutes after p.o. administration of (Ie1) 60 mg/kg
M1 receptors = biological target: T1, M1 receptors (Homo sapiens, UniProt P11229); assay: Receptorial profile in vitro on 74 receptors and channels; assay type: binding; details: concentration of 10 micromoles
T1 sequence (P11229 1-460): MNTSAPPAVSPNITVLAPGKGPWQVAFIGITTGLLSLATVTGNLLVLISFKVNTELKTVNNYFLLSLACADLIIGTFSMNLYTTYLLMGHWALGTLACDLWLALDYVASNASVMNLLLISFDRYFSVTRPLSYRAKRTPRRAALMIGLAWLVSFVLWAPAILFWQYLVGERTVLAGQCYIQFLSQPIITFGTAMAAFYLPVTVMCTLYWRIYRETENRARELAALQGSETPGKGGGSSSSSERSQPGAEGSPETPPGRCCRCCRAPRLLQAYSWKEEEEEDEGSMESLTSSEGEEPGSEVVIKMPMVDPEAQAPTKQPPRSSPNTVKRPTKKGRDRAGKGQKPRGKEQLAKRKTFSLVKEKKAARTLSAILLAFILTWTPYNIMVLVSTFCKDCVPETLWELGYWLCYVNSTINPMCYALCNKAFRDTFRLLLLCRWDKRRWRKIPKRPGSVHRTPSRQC

5HT5A receptors = 5HT5A receptors (Homo sapiens, UniProt P47898); assay: as above; assay type: binding; details: concentration of 10 micromoles
5HT5A receptors, sequence (P47898 whole entry): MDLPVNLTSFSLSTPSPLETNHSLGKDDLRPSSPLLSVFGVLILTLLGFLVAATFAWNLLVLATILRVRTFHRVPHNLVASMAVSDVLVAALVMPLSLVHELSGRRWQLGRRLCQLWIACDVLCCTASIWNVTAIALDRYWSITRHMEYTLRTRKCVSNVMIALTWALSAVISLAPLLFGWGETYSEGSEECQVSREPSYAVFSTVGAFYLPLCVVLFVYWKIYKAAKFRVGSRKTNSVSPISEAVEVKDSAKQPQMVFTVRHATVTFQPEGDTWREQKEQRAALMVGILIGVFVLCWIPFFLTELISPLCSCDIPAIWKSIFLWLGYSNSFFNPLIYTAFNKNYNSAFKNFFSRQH

[9] = test system: voltage dependent Ca channels; assay: as above; assay type: binding; details: concentration of 10 micromoles
[10] = Interval 1 (80 μm, posterior-anterior), sacrificed three days after injection
[11] = Interval 2, three days after injection
[12] = Interval 3, three days after injection
[13] = Interval 4, three days after injection
[14] = Interval 5, three days after injection
[15] = Interval 6, three days after injection
[16] = Interval 7, three days after injection
[17] = Interval 8, three days after injection
[18] = Interval 9, three days after injection
[19] = Interval 10, three days after injection
[20] = Interval 11, three days after injection
[21] = Sum of intervals 1-11, three days after injection

activity relative to the other enantiomer (Ie1a) ([1]; mouse, in vivo): twice as active
Molecule: 14,15-dihydro 14-(2-morpholin-4-yl-ethoxy) 20,21-dinoreburnamenin [(Ie1b)]
Average immobilisation time (Balb/c variety; 1 mg/kg i.p., three days after a single injection): 130 s

Molecule: CCOC(=O)COC1C[C@@H]2CCCN3CCc4c(n1c1ccccc41)[C@@H]23 (mixture of isomers) [(Ia1), (±) (16α) 14,15-dihydro 14-ethoxycarbonylmethoxy-20,21-dinoreburnamenin]
Quantity of TH measured in the LC [1]: 151 ± 5%

Molecule: Cc1noc(COC2C[C@@H]3CCCN4CCc5c(n2c2ccccc52)[C@@H]34)n1 (mixture of isomers) [(Ig1), (±) (3β, 16α) 14,15-dihydro 14-(3-methyl-[1,2,4]oxadiazol-5-ylmethoxy) 20,21-dinoreburnamenin]
Quantity of TH measured in the LC [1]: 118 ± 3%

Molecule: c1ccc(COC2C[C@@H]3CCCN4CCc5c(n2c2ccccc52)[C@@H]34)cc1 (mixture of isomers) [Compound (Id), (±) (3β, 16α) 14,15-dihydro 14-benzyloxy 20,21-dinoreburnamenin]
Quantity of TH measured in the LC [1]: 129 ± 5%

Molecule: c1ccc2c(c1)c1c3n2[C@H](OCCN2CCOCC2)C[C@@H]2CCCN(CC1)[C@@H]32 (racemic) [Compound (Ie1), 14,15-dihydro 14-(2-morpholin-4-yl-ethoxy) 20,21-dinoreburnamenin]
number of cells containing TH in the LC, entire structure (average) ([2]; 20 mg/kg i.p. sequential treatment at D0, D3, D6, D9 and D12, sacrificed at D16, control group 996±1): 1250±58 | time for which the increase in positive supernumerary TH cells in the LC is maintained after the treatment stopped ([2]; one 20 mg/kg i.p. injection every 3 days for 15 days): 24 days | interaction with SK+Ca channels (SK+Ca channels): no interaction | density of noradrenergic fibres in the prefrontal cortex [3]: very significant increase | 50% effective dose (DE50) ([1]; intra-peritoneal (i.p.) method): 0.5 mg/kg | activity relative to direct synthesis precursor with formula (1) ([1]; mouse, in vivo): 30 times | activity by mouth ([1]; oral): active by mouth | 50% effective dose (DE50) ([1]; oral (p.o.) method): 1.5 mg/kg | Quantity of TH measured in the LC [1]: 138 ± 4% | interaction with voltage dependent K channels [4]: no interaction | interaction with voltage dependent Na channels [5]: no interaction | interaction with catecholamine transport systems [6]: no interaction | Number of cells expressing hypocretins [7, 10]: 31.9 | Number of cells expressing hypocretins [7, 11]: 63.7 | Number of cells expressing hypocretins [7, 12]: 125.1 | Number of cells expressing hypocretins [7, 13]: 210.5 | Number of cells expressing hypocretins [7, 14]: 331.7 | Number of cells expressing hypocretins [7, 15]: 369.9 | Number of cells expressing hypocretins [7, 16]: 388.7 | Number of cells expressing hypocretins [7, 17]: 322.5 | Number of cells expressing hypocretins [7, 18]: 216.3 | Number of cells expressing hypocretins [7, 19]: 104.8 | Number of cells expressing hypocretins [7, 20]: 56.0 | Number of cells expressing hypocretins [7, 21]: 2221.1 | cerebral concentration/hepatic concentration ratio ([8]; 45 minutes after i.p. administration, 20 mg/kg): 0.41 | cerebral concentration/hepatic concentration ratio ([8]; 45 minutes after os administration, 60 mg/kg): 0.49 | share of the cerebral concentration [8]: 89% | affinity for M1 receptors (M1 receptors): moderate affinity link may be suspected | affinity for 5HT5A receptors (5HT5A receptors): moderate affinity link may be suspected | interaction with voltage dependent Ca channels [9]: no interaction

Molecule: O=C(COC1CC2CCCN3CCc4c(n1c1ccccc41)C23)NCCN1CCOCC1 (racemic) [Compound (If1), (±) (3β, 16α) 14,15-dihydro 14-[(2-morpholin-4-yl-ethylcarbamoyl)-methoxy]20,21-dinoreburnamenin]
increase of the total TH content in the LC ([1]; FIG. 1, 3 days after a single i.p. injection (20 mg/kg), versus control mice): 13±3% | Quantity of TH measured in the LC [1]: 113 ± 4%

Molecule: C1=Cn2c3c(c4ccccc42)CCN2CCC[C@@H]1[C@H]32 [(Ij1)]
Quantity of TH measured in the LC [1]: 123 ± 2%

presence of the substance after i.p. administration of compound (Ie1) ([8]; 45 minutes after i.p. administration of (Ie1) 20 mg/kg): undetectable | share of the cerebral concentration [8]: 11%
Molecule: OC1C[C@H]2CCCN3CCc4c(n1c1ccccc41)[C@@H]23 (stereo partly drawn) [Compound (1), 14,15 dihydro-20,21-dinoreburnamenin14-ol, reference compound]
Quantity of TH measured in the LC [1]: 120 ± 4% | Number of cells expressing hypocretins [7, 10]: 60.357 | Number of cells expressing hypocretins [7, 11]: 116.369 | Number of cells expressing hypocretins [7, 12]: 177.209 | Number of cells expressing hypocretins [7, 13]: 317.237 | Number of cells expressing hypocretins [7, 14]: 367.454 | Number of cells expressing hypocretins [7, 15]: 377.594 | Number of cells expressing hypocretins [7, 16]: 365.523 | Number of cells expressing hypocretins [7, 17]: 236.600 | Number of cells expressing hypocretins [7, 18]: 136.166 | Number of cells expressing hypocretins [7, 19]: 60.840 | Number of cells expressing hypocretins [7, 20]: 23.177 | Number of cells expressing hypocretins [7, 21]: 2238.526

Molecule: CN(C)CCCN1c2ccccc2CCc2ccccc21 [Imipramine, imipramine, reference compound]
Average immobilisation time (Balb/c variety; 30 mg/kg i.p. 30 minutes before the test): 70 s
